Test results taken from the kinase profiling compilation of Christmann-Franck et al. (2016).

Assays:
Assay in all cases: radiometric filter-binding kinase assay
[1] = target: AURKB (human) (UniProt Q96GD4)
[2] = target: BRSK2 (human) (UniProt Q8IWQ3)
[3] = target: CAMKK2 (human) (UniProt Q96RR4)
[4] = target: CHEK1 (human) (UniProt O14757)
[5] = target: CLK2 (human) (UniProt P49760)
[6] = target: CSNK2A1 (human) (UniProt P68400)
[7] = target: CaMK1 (human) (UniProt Q14012)
[8] = target: DAPK1 (human) (UniProt P53355)
[9] = target: DYRK1A (human) (UniProt Q13627)
[10] = target: DYRK3 (human) (UniProt O43781)
[11] = target: EPHB2 (human) (UniProt P29323)
[12] = target: FGFR1 (human) (UniProt P11362)
[13] = target: GCK (human) (UniProt Q12851)
[14] = target: HIPK1 (human) (UniProt Q86Z02)
[15] = target: HIPK2 (human) (UniProt Q9H2X6)
[16] = target: IGF1R (human) (UniProt P08069)
[17] = target: JAK2 JH1 JH2 (human) (UniProt O60674)
[18] = tested on: LCK (mouse); details: accession and sequence are those of the human protein
[19] = target: MAPK10 (human) (UniProt P53779)
[20] = target: MAPK11 (human) (UniProt Q15759)
[21] = target: MAPK13 (human) (UniProt O15264)
[22] = target: MAPK8 (human) (UniProt P45983)
[23] = target: MAPKAPK5 (human) (UniProt Q8IW41)
[24] = target: MARK3 (human) (UniProt P27448)
[25] = target: MINK1 (human) (UniProt Q8N4C8)
[26] = target: MKNK1 (human) (UniProt Q9BUB5)
[27] = tested on: PAK2 (human), Q13177 [T402E]
[28] = target: PHKG1 (human) (UniProt Q16816)
[29] = target: PIM3 (human) (UniProt Q86V86)
[30] = tested on: ROCK2 (rat); details: accession and sequence are those of the human protein
[31] = tested on: SGK1 (human), O00141 [S422D]
[32] = target: SRPK1 (human) (UniProt Q96SB4)
[33] = target: STK3 (human) (UniProt Q13188)
[34] = target: TAOK1 (human) (UniProt Q7L7X3)
[35] = target: TBK1 (human) (UniProt Q9UHD2)
[36] = target: YES1 (human) (UniProt P07947)

Sequence of GCK (human) (Q12851 whole entry, looked up): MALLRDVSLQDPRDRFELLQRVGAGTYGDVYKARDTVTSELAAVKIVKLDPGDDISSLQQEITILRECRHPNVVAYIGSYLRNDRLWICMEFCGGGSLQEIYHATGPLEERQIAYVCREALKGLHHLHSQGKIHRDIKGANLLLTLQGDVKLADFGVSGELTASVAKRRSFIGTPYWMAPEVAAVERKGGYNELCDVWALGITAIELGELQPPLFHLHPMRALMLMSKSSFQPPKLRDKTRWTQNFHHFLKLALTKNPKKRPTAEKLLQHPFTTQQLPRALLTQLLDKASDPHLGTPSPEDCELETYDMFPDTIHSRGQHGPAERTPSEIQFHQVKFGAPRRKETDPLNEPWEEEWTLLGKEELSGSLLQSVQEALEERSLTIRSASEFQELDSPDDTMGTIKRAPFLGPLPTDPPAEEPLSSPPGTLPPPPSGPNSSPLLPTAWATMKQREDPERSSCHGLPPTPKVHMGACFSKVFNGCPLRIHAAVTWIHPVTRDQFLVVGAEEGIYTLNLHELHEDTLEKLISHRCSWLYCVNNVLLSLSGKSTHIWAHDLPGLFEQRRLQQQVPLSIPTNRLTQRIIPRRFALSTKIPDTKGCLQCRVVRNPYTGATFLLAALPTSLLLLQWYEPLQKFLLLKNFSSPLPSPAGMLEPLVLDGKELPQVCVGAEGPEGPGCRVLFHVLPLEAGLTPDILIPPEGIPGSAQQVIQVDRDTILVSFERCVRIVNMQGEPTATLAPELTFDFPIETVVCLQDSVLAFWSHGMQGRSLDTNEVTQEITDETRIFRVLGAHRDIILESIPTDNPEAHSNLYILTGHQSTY
Sequence of HIPK1 (human) (Q86Z02 whole entry, looked up): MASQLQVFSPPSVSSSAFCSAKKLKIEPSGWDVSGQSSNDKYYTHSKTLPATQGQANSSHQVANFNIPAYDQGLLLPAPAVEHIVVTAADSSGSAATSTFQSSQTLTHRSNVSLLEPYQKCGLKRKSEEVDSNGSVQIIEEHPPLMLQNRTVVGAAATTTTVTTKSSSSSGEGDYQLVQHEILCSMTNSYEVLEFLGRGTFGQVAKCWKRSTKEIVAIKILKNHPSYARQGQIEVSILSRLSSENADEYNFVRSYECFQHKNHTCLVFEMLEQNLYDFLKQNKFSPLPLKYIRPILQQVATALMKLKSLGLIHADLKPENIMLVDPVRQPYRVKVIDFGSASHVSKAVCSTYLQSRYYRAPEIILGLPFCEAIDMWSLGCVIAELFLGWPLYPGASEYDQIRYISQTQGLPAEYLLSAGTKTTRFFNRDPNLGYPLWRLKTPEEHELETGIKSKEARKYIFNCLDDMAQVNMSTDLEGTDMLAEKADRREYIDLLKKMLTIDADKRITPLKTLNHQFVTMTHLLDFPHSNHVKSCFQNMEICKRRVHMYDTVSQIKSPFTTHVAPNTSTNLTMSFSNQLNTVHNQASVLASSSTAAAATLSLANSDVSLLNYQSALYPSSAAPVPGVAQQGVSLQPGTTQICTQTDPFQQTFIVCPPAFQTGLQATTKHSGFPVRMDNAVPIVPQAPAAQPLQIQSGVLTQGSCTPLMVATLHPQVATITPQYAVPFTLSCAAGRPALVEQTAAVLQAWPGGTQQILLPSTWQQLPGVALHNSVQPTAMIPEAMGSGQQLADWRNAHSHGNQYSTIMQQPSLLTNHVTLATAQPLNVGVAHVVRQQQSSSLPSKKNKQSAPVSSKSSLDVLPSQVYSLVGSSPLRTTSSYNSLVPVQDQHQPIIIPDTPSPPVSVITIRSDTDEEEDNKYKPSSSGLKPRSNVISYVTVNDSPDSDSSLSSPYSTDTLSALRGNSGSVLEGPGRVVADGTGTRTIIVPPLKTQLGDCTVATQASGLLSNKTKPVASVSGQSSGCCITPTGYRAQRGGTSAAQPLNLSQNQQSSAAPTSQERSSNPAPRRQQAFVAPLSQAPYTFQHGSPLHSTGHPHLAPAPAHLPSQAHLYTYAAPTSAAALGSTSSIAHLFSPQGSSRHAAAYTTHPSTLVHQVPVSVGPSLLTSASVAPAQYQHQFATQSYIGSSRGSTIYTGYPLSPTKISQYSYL
Sequence of HIPK2 (human) (Q9H2X6 whole entry, looked up): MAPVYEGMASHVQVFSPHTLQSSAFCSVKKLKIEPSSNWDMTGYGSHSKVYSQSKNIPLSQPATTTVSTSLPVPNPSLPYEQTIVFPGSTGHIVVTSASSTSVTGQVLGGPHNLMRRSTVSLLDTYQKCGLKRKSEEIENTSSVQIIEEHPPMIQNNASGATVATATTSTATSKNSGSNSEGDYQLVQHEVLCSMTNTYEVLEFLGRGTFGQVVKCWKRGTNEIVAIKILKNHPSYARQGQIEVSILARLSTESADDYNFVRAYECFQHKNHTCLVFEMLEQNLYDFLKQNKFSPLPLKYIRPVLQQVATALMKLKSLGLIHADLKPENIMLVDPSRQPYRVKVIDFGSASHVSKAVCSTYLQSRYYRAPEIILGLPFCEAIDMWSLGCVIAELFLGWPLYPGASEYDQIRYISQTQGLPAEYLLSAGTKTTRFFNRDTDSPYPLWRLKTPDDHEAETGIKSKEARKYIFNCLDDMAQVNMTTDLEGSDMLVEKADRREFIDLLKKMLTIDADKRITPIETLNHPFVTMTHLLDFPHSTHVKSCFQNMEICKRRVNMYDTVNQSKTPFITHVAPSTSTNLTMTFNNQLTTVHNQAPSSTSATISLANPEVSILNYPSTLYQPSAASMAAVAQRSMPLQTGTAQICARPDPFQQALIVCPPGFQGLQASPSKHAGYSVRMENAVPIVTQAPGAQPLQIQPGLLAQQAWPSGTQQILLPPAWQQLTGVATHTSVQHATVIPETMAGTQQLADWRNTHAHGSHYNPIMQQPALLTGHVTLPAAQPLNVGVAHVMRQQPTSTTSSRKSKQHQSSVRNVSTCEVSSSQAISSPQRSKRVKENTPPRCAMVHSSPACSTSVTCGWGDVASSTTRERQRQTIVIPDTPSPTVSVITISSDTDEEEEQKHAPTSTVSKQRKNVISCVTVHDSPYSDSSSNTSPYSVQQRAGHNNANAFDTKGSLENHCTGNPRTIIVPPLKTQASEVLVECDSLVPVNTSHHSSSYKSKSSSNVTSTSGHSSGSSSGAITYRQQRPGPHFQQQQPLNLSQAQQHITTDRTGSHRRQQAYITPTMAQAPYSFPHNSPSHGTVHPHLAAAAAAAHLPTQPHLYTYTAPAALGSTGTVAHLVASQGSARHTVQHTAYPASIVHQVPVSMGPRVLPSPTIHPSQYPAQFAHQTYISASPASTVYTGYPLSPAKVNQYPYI
Sequence of MKNK1 (human) (Q9BUB5 whole entry, looked up): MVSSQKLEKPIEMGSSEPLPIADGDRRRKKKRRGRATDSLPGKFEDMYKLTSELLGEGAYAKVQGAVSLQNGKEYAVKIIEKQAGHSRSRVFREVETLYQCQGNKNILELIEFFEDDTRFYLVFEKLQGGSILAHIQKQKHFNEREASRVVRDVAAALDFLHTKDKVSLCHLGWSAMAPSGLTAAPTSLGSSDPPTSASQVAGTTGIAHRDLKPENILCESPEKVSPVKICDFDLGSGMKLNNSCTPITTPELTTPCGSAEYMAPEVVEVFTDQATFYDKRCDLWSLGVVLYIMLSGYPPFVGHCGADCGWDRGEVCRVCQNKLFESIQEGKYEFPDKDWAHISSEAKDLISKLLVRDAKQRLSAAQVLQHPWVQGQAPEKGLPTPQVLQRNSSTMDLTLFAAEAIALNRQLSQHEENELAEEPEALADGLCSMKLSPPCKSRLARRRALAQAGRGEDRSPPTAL
Sequence of SGK1 (human), O00141 [S422D] (O00141 whole entry S422D, looked up): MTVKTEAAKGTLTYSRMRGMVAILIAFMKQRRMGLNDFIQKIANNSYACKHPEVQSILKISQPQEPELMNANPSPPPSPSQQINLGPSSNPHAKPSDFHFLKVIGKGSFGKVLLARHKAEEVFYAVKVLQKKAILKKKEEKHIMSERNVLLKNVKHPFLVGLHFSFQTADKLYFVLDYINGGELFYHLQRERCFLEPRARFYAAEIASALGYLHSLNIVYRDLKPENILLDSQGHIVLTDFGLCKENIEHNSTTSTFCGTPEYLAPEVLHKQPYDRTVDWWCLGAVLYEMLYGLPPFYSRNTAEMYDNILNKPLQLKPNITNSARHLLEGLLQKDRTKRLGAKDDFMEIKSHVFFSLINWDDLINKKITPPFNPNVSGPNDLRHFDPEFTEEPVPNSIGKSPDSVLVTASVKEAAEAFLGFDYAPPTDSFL
Sequence of MAPK11 (human) (Q15759 whole entry, looked up): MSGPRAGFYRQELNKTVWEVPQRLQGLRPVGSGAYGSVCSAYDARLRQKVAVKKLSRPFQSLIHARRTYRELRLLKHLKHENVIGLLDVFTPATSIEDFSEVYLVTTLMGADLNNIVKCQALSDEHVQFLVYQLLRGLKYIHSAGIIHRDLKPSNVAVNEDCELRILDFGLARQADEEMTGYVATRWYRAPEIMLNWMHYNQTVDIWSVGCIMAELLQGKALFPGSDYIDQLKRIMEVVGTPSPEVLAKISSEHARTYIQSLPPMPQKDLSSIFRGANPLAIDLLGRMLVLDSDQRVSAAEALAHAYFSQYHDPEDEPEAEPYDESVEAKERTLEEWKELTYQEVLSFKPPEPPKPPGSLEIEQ
Sequence of PHKG1 (human) (Q16816 whole entry, looked up): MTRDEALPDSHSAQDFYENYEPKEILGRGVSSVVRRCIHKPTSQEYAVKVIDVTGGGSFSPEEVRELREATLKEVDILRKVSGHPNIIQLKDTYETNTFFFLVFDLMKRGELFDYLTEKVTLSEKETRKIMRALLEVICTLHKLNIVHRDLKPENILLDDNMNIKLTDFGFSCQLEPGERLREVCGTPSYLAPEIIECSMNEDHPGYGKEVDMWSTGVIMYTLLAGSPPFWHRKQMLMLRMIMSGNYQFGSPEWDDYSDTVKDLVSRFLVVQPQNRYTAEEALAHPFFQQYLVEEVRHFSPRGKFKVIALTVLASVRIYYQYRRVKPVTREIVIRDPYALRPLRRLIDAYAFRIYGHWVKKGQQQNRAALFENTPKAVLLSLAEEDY

CNc1nc(-c2ccc3c(N)n[nH]c3c2)cc(N2C[C@@H](C(=O)NC3CCCCC3)CC[C@H]2C)n1
residual activity ([1]; compound 0.01 µM): 105% | residual activity ([1]; compound 0.1 µM): 106% | residual activity ([1]; compound 1.0 µM): 72% | residual activity ([1]; compound 10.0 µM): 29% | residual activity ([2]; compound 0.01 µM): 114% | residual activity ([2]; compound 0.1 µM): 110% | residual activity ([2]; compound 10.0 µM): 15% | residual activity ([3]; compound 0.01 µM): 112% | residual activity ([3]; compound 0.1 µM): 123% | residual activity ([3]; compound 1.0 µM): 99% | residual activity ([3]; compound 10.0 µM): 91% | residual activity ([4]; compound 0.01 µM): 111% | residual activity ([4]; compound 0.1 µM): 106% | residual activity ([4]; compound 1.0 µM): 96% | residual activity ([4]; compound 10.0 µM): 103% | residual activity ([5]; compound 1.0 µM): 98% | residual activity ([5]; compound 10.0 µM): 88% | residual activity ([6]; compound 0.01 µM): 103% | residual activity ([6]; compound 0.1 µM): 104% | residual activity ([6]; compound 1.0 µM): 91% | residual activity ([6]; compound 10.0 µM): 111% | residual activity ([7]; compound 0.01 µM): 108% | residual activity ([7]; compound 0.1 µM): 112% | residual activity ([7]; compound 1.0 µM): 89% | residual activity ([7]; compound 10.0 µM): 95% | residual activity ([8]; compound 1.0 µM): 35% | residual activity ([8]; compound 10.0 µM): 12% | residual activity ([9]; compound 0.01 µM): 102% | residual activity ([9]; compound 0.1 µM): 107% | residual activity ([9]; compound 1.0 µM): 92% | residual activity ([9]; compound 10.0 µM): 82% | residual activity ([10]; compound 0.01 µM): 100% | residual activity ([10]; compound 0.1 µM): 103% | residual activity ([10]; compound 1.0 µM): 94% | residual activity ([10]; compound 10.0 µM): 88% | residual activity ([11]; compound 1.0 µM): 119% | residual activity ([11]; compound 10.0 µM): 111% | residual activity ([12]; compound 0.01 µM): 119% | residual activity ([12]; compound 0.1 µM): 119% | residual activity ([12]; compound 1.0 µM): 105% | residual activity ([12]; compound 10.0 µM): 88% | residual activity ([13]; compound 0.01 µM): 109% | residual activity ([13]; compound 0.1 µM): 116% | residual activity ([13]; compound 1.0 µM): 97% | residual activity ([13]; compound 10.0 µM): 86% | residual activity ([14]; compound 0.01 µM): 102% | residual activity ([14]; compound 0.1 µM): 105% | residual activity ([14]; compound 1.0 µM): 94% | residual activity ([14]; compound 10.0 µM): 112% | residual activity ([15]; compound 0.01 µM): 119% | residual activity ([15]; compound 0.1 µM): 124% | residual activity ([15]; compound 1.0 µM): 95% | residual activity ([15]; compound 10.0 µM): 113% | residual activity ([16]; compound 0.1 µM): 115% | residual activity ([16]; compound 1.0 µM): 98% | residual activity ([16]; compound 10.0 µM): 100% | residual activity ([17]; compound 1.0 µM): 108% | residual activity ([17]; compound 10.0 µM): 99% | residual activity ([18]; compound 0.01 µM): 112% | residual activity ([18]; compound 0.1 µM): 107% | residual activity ([18]; compound 1.0 µM): 97% | residual activity ([18]; compound 10.0 µM): 99% | residual activity ([19]; compound 0.01 µM): 106% | residual activity ([19]; compound 0.1 µM): 106% | residual activity ([19]; compound 10.0 µM): 97% | residual activity ([20]; compound 0.01 µM): 113% | residual activity ([20]; compound 0.1 µM): 129% | residual activity ([20]; compound 1.0 µM): 105% | residual activity ([20]; compound 10.0 µM): 109% | residual activity ([21]; compound 0.01 µM): 106% | residual activity ([21]; compound 0.1 µM): 113% | residual activity ([21]; compound 1.0 µM): 93% | residual activity ([21]; compound 10.0 µM): 101% | residual activity ([22]; compound 0.01 µM): 92% | residual activity ([22]; compound 0.1 µM): 108% | residual activity ([22]; compound 1.0 µM): 94% | residual activity ([22]; compound 10.0 µM): 108% | residual activity ([23]; compound 0.01 µM): 81% | residual activity ([23]; compound 0.1 µM): 92% | residual activity ([23]; compound 1.0 µM): 110% | residual activity ([23]; compound 10.0 µM): 95% | residual activity ([24]; compound 0.01 µM): 113% | residual activity ([24]; compound 0.1 µM): 109% | residual activity ([24]; compound 1.0 µM): 88% | residual activity ([24]; compound 10.0 µM): 87% | residual activity ([25]; compound 0.01 µM): 121% | residual activity ([25]; compound 0.1 µM): 110% | residual activity ([25]; compound 1.0 µM): 89% | residual activity ([25]; compound 10.0 µM): 74% | residual activity ([26]; compound 0.01 µM): 106% | residual activity ([26]; compound 0.1 µM): 108% | residual activity ([26]; compound 1.0 µM): 111% | residual activity ([26]; compound 10.0 µM): 92% | residual activity ([27]; compound 0.01 µM): 105% | residual activity ([27]; compound 0.1 µM): 119% | residual activity ([27]; compound 1.0 µM): 102% | residual activity ([27]; compound 10.0 µM): 77% | residual activity ([28]; compound 0.01 µM): 106% | residual activity ([28]; compound 0.1 µM): 108% | residual activity ([28]; compound 1.0 µM): 101% | residual activity ([28]; compound 10.0 µM): 78% | residual activity ([29]; compound 0.01 µM): 105% | residual activity ([29]; compound 0.1 µM): 112% | residual activity ([29]; compound 1.0 µM): 94% | residual activity ([29]; compound 10.0 µM): 73% | residual activity ([30]; compound 0.01 µM): 96% | residual activity ([30]; compound 0.1 µM): 92% | residual activity ([30]; compound 1.0 µM): 67% | residual activity ([30]; compound 10.0 µM): 27% | residual activity ([31]; compound 0.01 µM): 96% | residual activity ([31]; compound 0.1 µM): 96% | residual activity ([31]; compound 1.0 µM): 81% | residual activity ([31]; compound 10.0 µM): 37% | residual activity ([32]; compound 0.01 µM): 106% | residual activity ([32]; compound 0.1 µM): 120% | residual activity ([32]; compound 1.0 µM): 104% | residual activity ([32]; compound 10.0 µM): 90% | residual activity ([33]; compound 0.01 µM): 116% | residual activity ([33]; compound 0.1 µM): 128% | residual activity ([33]; compound 1.0 µM): 91% | residual activity ([33]; compound 10.0 µM): 84% | residual activity ([34]; compound 1.0 µM): 86% | residual activity ([34]; compound 10.0 µM): 96% | residual activity ([35]; compound 0.01 µM): 110% | residual activity ([35]; compound 0.1 µM): 115% | residual activity ([35]; compound 1.0 µM): 89% | residual activity ([35]; compound 10.0 µM): 81% | residual activity ([36]; compound 0.01 µM): 122% | residual activity ([36]; compound 0.1 µM): 119% | residual activity ([36]; compound 1.0 µM): 106% | residual activity ([36]; compound 10.0 µM): 98%
